The text below walks through data of patent US20120295838A1, “Selective poly-substituted glycine antibiotics and related compositions” (priority 2008, published 2012).

The subject of one data set is E. coli ATCC 35218. It is filed as cell-based. As for the experimental part: (§1) Whereas the preceding generation of molecules was designed to elucidate structure function relationships of specific molecular parameters (chirality, length, hydrophobicity, etc.), another generation compounds were designed explicitly to explore effects on selectivity. Antimicrobial activity of these compounds was tested against bacterial strains E. coli (ATTC 35218) and B. subtilis (ATTC 6633) in cation-adjusted MHB using the microdilution protocols previously described. The sequences, antimicrobial activities, hemolytic activities, and metabolic inhibitory concentrations against NIH 3T3 mouse fibroblast cells are summarized in Table 3 and the rationale of their design is described below.
(§2) Screening antibacterial assays. MICs were determined in 96-well microtiter plates in accordance with CLSI M7-A6 protocols. Peptoid solutions with 50 μL total volume were prepared using 2:1 serial dilutions. 50 i—tL of bacteria inoculum (1×10^6 CFU/mL) prepared in cation-adjusted Mueller-Hinton broth (CAMHB) was added to test wells. Control wells contained 100 μL MHB (no growth) or 50 μL inoculums with 50 μL MHB with no peptoid. […] Reported values were reproducible over three experiments, each containing two parallel trials.
(§3) Antibacterial Assays for Compositions. MICs were determined according to CLSI M7-A6 protocols in a 96-well microtiter plate. In test wells, 50 μL bacterial inoculum (1×10^6 CFU/ml) in cation-adjusted Mueller-Hinton broth (CAMHB) was added to 50 μL peptoid solution in CAMHB (prepared by 1:2 serial dilutions). Positive controls contained 50 μL inoculum and 50 μL CAMHB without peptoid. […] MIC values reported were reproducible between three independent experimental replicates, each consisting of two parallel trials.

A further data set is described as follows: MTS assay, NIH 3T3 cells. The format is cell-based, mouse. The following applies: mouse, NIH 3T3 fibroblast cells. How it is done: (§4) The potencies of all compounds were determined against representative Gram-negative (E. coli ATCC 35218) and Gram-positive (B. subtilis ATCC 6633) biosafety level 1 (BSL1) organisms. In addition to hemolytic activity, the conventional measure of toxicity to mammalian cells, the effect of each ampetoid on NIH 3T3 mouse fibroblast cells was determined using the MTS tetrazolium salt-based colorimetric assay. While hemolysis measures the degree to which erythrocytes are lysed, the MTS assay indirectly quantifies the extent to which cellular metabolic activity is inhibited.
(§5) MTS assays. NIH/3T3 cells (ATCC Corporation) cultured at 37° C. and 5% CO2 in complete Dulbecco's modified eagle's media (CDMEM) supplemented with 1% sodium pyruvate, 1% penicillin-streptomycin, 1.5 g/L NaHCO3, and 10% fetal bovine serum. Cells were seeded at a density of 5,000 cells per well for NIH/3T3 cells in 96-well plates (100 μl total volume). A peptoid solution plate (100 μL total volume per well) was prepared by serial dilution of aqueous peptoid stock solution in Hank's balanced salt solution (HBSS) media. The day-old cell monolayers were washed with HBSS and media was replaced with 100 μL HBSS. The contents of the peptoid solution plate were transferred onto corresponding wells of the cell monolayer plate, and 40 μL MTS reagent (Promega, Inc.) was added to each well. After incubating for 3 hours at 37° C., absorbance at 490 nm was determined. […] The average of six replicates is reported.
On the technique in general: Tetrazolium assays rely on reduction of a dye to a coloured formazan, in cell work by metabolically active cells.

The subject of data set [1] is NIH 3T3 mouse fibroblast cells. The data set can be described thus: MTS assay, NIH 3T3 cells. It is filed as cell-based. How it is done: as §4, §5
The test system of the next data set is B. subtilis ATCC 6633. The format is cell-based. As for the experimental part:
as §1, §2, §3

A further data set concerns human erythrocytes. The data set can be described thus: Hemolysis assay. The format is cell-based. As for the experimental part:
(§6) Hemolysis assays. Erythrocytes were isolated from freshly drawn, heparanized human blood and resuspended to 20 vol % in PBS (pH 7.4). In a 96-well microtiter plate, 100 μL erythrocyte suspension was added to 100 uL peptoid solution in PBS (prepared by 1:2 serial dilutions), or 100 μL PBS in the case of negative controls. 100% hemolysis wells contained 100 μL, blood cell suspension with 100 μL 0.2 vol % Triton X-100. The plate was incubated for 1 h at 37° C., then each well was diluted with 1504 PBS. The plate was then centrifuged at 1200 g for 15 min, 100 μL of the supernatant from each well transferred to a fresh microtiter plate, and A350 measured.
Hemolysis assays. Erythrocytes were isolated from freshly drawn, heparanized human blood and resuspended in PBS (pH 7.4) to make a 20% volume suspension. Peptoid solutions were prepared by serial dilution (2:1) in a 96-well microtiter plate. For test wells, 100 μLL of erythrocyte suspension was added to 100 μL of peptoid solution in PBS; PBS without peptoid was used as the negative control and 0.2 vol % Triton X-100 as the positive control that indicates 100% hemolysis. After 1 hour incubation at 37° C., each well was diluted with 150 μL PBS. Plates were then centrifuged at 1,200×g for 15 minutes to pellet the cells. 30 μL of the supernatant from each well were transferred to the corresponding well of a second 96-well plate that contains 70 μL PBS.
as §6, with “assays for Compositions.” for “assays.”, “100” for “100 uL”, “μL” for “μL,”, “150 μL” for “1504”, “1200g” for “1200 g”

Data set [2] in a line: RP-HPLC solvent composition at elution as measure of molecular hydrophobicity. The note with it: Table 8; gradient 5 to 95% ACN over 45 min, C18 column, 0.2 ml/min; average of three replicates. The format is physicochemical. An excerpt: An initial set of 15 ampetoid analogs was synthesized to determine whether peptoids are affected by structural and sequence modifications in a manner consistent with AMP activities. The designs for ampetoids in this library were derived from two antibacterial and selective amphipathic dodecamers, 1 and 2. Peptoid 1 [H-(Nlys-Nspe-Nspe)4-NH2] is composed of 2/3 Nspe, the peptoid analog of phenylalanine, and 1/3 Mys, the peptoid analog of lysine (see FIG. 1 for the structures of representative peptoid monomers and corresponding N-substituents). Peptoid 2 [H-(Mys-Nssb-Nspe)4-NH2] contains 1/3 isoleucine-like Nssb monomers in place of Nspe. The variant sequences were designed to effect changes in chirality, length, hydrophobicity, charge, and amphipathicity. All of these compounds were tested for antibacterial activity against representative BSL1 Gram-negative (E. coli JM109) and Gram-positive (B. subtilis BR151) bacterial strains. As an initial measure of selectivity, the lytic activity of the peptoids was determined against human erythrocytes. Table 1 summarizes the sequences synthesized, the solvent composition at RP-HPLC elution as a relative measure of molecular hydrophobicity, and antibacterial and hemolytic activities.
Following synthesis, peptoid oligomers can be cleaved from the resin, simultaneously removing the tert-butoxycarbonyl (Boc) protecting group from Mys residues, by treatment with 10 ml 2,2,2-trifluoroacetic acid (TFA)/triisopropylsilane/H2O (95:2.5:2.5 by volume) for 30 min. The cleavage mixture is then diluted with 25 ml 50% aqueous acetonitrile, frozen, and lyophilized. Dilution and lyophilization is repeated twice more in order to remove excess TFA. Subsequent to cleavage, peptoids are each purified to >97% homogeneity by preparative scale reversed-phase HPLC using a Waters Prep LC 4000 system, with Waters 2487 dual-wavelength UV detection, and gradient elution (solvent A, 0.1 vol % trifluoroacetic acid (TFA) in water; solvent B, 0.1 vol % TFA in acetonitrile) through a Vydac (Hysperia, Calif.) 214TP101550 C4 peptide/protein column (10-15 μm, 300 Å, 5×25 cm). Following prep HPLC, peptoid purities and crude yields were determined from analytical scale HPLC, performed with a Waters 2695 Separations Module with a Waters 2487 dual-wavelength UV detector and gradient elution (solvent A, 0.1 vol % TFA in water; solvent B, 0.1 vol % TFA in acetonitrile) through a Vydac C4 214TP53 peptide/protein column (5 μm, 300 Å, 3.2×250 mm). The precise gradient employed for HPLC depended on the identity and hydrophobicity of the oligomer in question. All analytical HPLC was performed at 0.5 ml/min flow and 58° C. Preparative HPLC was performed at 50 ml/min flow and room temperature.
Compound synthesis and purification. Peptoids were synthesized using an ABI 433A peptide synthesizer (Applied Biosystems, Inc.) on Rink amide MBHA resin (Novabiochem, Inc.) using the submonomer approach^3. Briefly, bromoacetic acid, activated by diisopropylcarbodiimide was used to form a bromocetylated intermediate on the terminal amide group. Bromide was then substituted with the desired primary amine through SN2 displacement to build the peptoid chain. The amines used in peptoid synthesis include benzylamine, octadecylamine, (s)-(+)-2-amino-3-methylbutane, (s)-α-methylbenzylamine, (r)-(α-methylbenzylamine (all purchased from Sigma-Aldrich), and N-tert-butoxycarbonyl-1,4 diaminobutane (Mys) that was made using a published procedure^83. Resin-bound peptoids were then exposed to a mixture of trifluoroacetic acid (TFA): triisopropylsilane:water (95:2.5:2.5, v:v:v) for ten minutes to cleave peptoids from the solid phase. Peptoids were purified by reversed-phase HPLC (RP-HPLC) (Waters Corporation) using a C18 column and a linear acetonitrile/water gradient. A final purity greater than 97% as measured by analytical RP-HPLC (Waters Corporation) was achieved, and the identity of each molecule was checked using electrospray ionization mass spectrometry. […]

Where two headings read alike, the source gives them in different places. Square brackets hold non-standard residues; d marks the D form. Peptide text beside a SMILES is read from it. Nspe = C[C@H](NCC(=O)O)c1ccccc1; Nphe = O=C(O)CNCc1ccccc1; Nlys = NCCCCNCC(=O)O

The CC50 is the concentration giving 50% cytotoxicity. Lower therefore signals harm at low concentration.

With `C[C@@H](c1ccccc1)N(CC(N)=O)C(=O)CN(C(=O)CN(CCCCN)C(=O)CN(Cc1ccccc1)C(=O)CN(Cc1ccccc1)C(=O)CN(CCCCN)C(=O)CN(C(=O)CN(C(=O)CN(CCCCN)C(=O)CN(Cc1ccccc1)C(=O)CN(Cc1ccccc1)C(=O)CNCCCCN)[C@@H](C)c1ccccc1)[C@@H](C)c1ccccc1)[C@@H](C)c1ccccc1` [1-Npm2,3,8,9, H-(Nlys-Npm-Npm-Nlys-Nspe-Nspe)2-NH2], in the data set on E. coli ATCC 35218 (ATCC 35218), the “E. coli MIC” value amounted to 6.3 µM. In “MTS assay, NIH 3T3 cells”, this molecule showed a CC50 at 3 h of 15 µM. Besides, the ID50 in data set [1] is 15 µM.

For the molecule `CC(C)[C@H](C)N(CC(N)=O)C(=O)CN(C(=O)CN(CCCCN)C(=O)CN(C(=O)CN(C(=O)CN(CCCCN)C(=O)CN(C(=O)CN(C(=O)CN(CCCCN)C(=O)CN(C(=O)CN(C(=O)CNCCCCN)[C@@H](C)C(C)C)[C@@H](C)C(C)C)[C@@H](C)C(C)C)[C@@H](C)C(C)C)[C@@H](C)C(C)C)[C@@H](C)C(C)C)[C@@H](C)C(C)C` [1-Nsdpall, H-(Nlys-Nsdp-Nsdp)4-NH2], the “E. coli MIC” value in the data set on E. coli ATCC 35218 (Table 6, E. coli ATCC 35218) was determined as 25 µM. Further, the “Selectivity ratio SR E. coli” value in the data set with E. coli ATCC 35218 (Table 6, ratio of 10% hemolytic dose to E. coli MIC) was more than 8. Also, in the data set on B. subtilis ATCC 6633 (Table 6, B. subtilis ATCC 6633), the “B. subtilis MIC” value stood at 0.78 µM. Further, the “Selectivity ratio SR B. subtilis” value in the data set on B. subtilis ATCC 6633 (Table 6, ratio of 10% hemolytic dose to B. subtilis MIC) amounted to 256. The CC50 at 3 h in “MTS assay, NIH 3T3 cells” is 64 µM.

Take `C[C@@H](c1ccccc1)N(CC(=O)N(CC(=O)N(CCCCN)CC(=O)N(CC(=O)N(CC(=O)N(CCCCN)CC(=O)N(CC(=O)N(CC(=O)N(CCCCN)CC(=O)N(CC(=O)N(CC(N)=O)Cc1ccccc1)Cc1ccccc1)Cc1ccccc1)Cc1ccccc1)Cc1ccccc1)Cc1ccccc1)Cc1ccccc1)C(=O)CNCCCCN` [1ach-Nspe2, H-(Nlys-Nspe-Npm)-(Nlys-Npm-Npm)3-NH2] (H-[Nlys][Nspe][Nphe][Nlys][Nphe][Nphe][Nlys][Nphe][Nphe][Nlys][Nphe][Nphe]-NH2): in the data set on E. coli ATCC 35218 (ATCC 35218), the “E. coli MIC” value was found to be 6.3 µM. Besides, half-maximal cytotoxicity in the data set “MTS assay, NIH 3T3 cells” (CC50 at 3 h) was put at 11 µM. The ID50 in data set [1] was 11 µM.

On to `C[C@@H](c1ccccc1)N(CC(N)=O)C(=O)CN(CCCCN)C(=O)CN(CCCCN)C(=O)CN(C(=O)CN(C(=O)CN(CCCCN)C(=O)CN(C(=O)CN(CCCCN)C(=O)CN(CCCCN)C(=O)CN(C(=O)CN(C(=O)CNCCCCN)[C@@H](C)c1ccccc1)[C@@H](C)c1ccccc1)[C@@H](C)c1ccccc1)[C@@H](C)c1ccccc1)[C@@H](C)c1ccccc1` [1-Nlys5,11, H-(Nlys-Nspe-Nspe-Nlys-Nlys-Nspe)2-NH2] (H-[Nlys][Nspe][Nspe][Nlys][Nlys][Nspe][Nlys][Nspe][Nspe][Nlys][Nlys][Nspe]-NH2), for which, in the data set on human erythrocytes, the HD10 is >200/>200 μM and the HD50 is reported as >200/>200 μM. For the same molecule, in the data set on E. coli ATCC 35218 (ATCC 35218), the “E. coli MIC” value is 50 µM and the “MIC for E. coli ATCC 35218” value came to 30 µM. The “MIC for B. subtilis ATCC 6633” value in the data set with B. subtilis ATCC 6633 (ATCC 6633) was 0.78 µM. Also, in “MTS assay, NIH 3T3 cells”, the cytotoxic concentration (CC50) at 3 h was found to be 85 µM.

The molecule `CC[C@H](C)[C@H](NC(=O)CN)C(=O)NCC(=O)N[C@@H](C)C(=O)N[C@H](C(=O)N[C@@H](CC(C)C)C(=O)N[C@@H](CCCCN)C(=O)N[C@H](C(=O)N[C@@H](CC(C)C)C(=O)N[C@H](C(=O)N[C@H](C(=O)NCC(=O)N[C@@H](CC(C)C)C(=O)N1CCC[C@H]1C(=O)N[C@@H](C)C(=O)N[C@@H](CC(C)C)C(=O)N[C@H](C(=O)N[C@@H](CO)C(=O)N[C@@H](Cc1c[nH]c2ccccc12)C(=O)N[C@H](C(=O)N[C@@H](CCCCN)C(=O)N[C@@H](CCCNC(=N)N)C(=O)N[C@@H](CCCCN)C(=O)N[C@@H](CCCNC(=N)N)C(=O)N[C@@H](CCC(N)=O)C(=O)N[C@@H](CCC(N)=O)C(N)=O)[C@@H](C)CC)[C@@H](C)CC)[C@@H](C)O)[C@@H](C)O)C(C)C)C(C)C` [melittin, reference compound] gave an HD50 with human erythrocytes (Table 8) of 6 µM. The “MIC for E. coli ATCC 35218” value with E. coli ATCC 35218 (Table 8, CAMHB) is 12.5 µM. For the same molecule, in the data set with E. coli ATCC 35218 (Table 8, calculated as HD10/E. coli MIC), the SR is recorded as 0.16. In data set [2], the “% ACN at RP-HPLC elution” value was 65.2 % ACN.
